In patent publication US7029918B2, “Water-soluble derivatives of lipophilic drugs” (Roche Diagnostics Operations, Inc., priority 2002, dated 2006):
Values joined by “and” are separate entries in the source; they are usually repeats but may differ in a detail not shown here. Identical values can stand only once.

Assays:
[1] = Heat stress stability of urine standard solutions, GC/MS quantification; assay type: physicochemical; conditions: for change of concentration in urine: 45° C. and 55° C.
Description: (§1) Urine standard solutions were prepared using pooled, filtered, normal human urine containing 0.09 percent sodium azide. […] Each of the drug stock solutions was added analytically to the assigned aliquot of urine pool. Final drug concentrations in the solutions were determined by GC-MS analyses performed at ELSOHLY LABORATORIES (Oxford, MS).
(§2) The stability of the above standard solutions were evaluated using three different analytical technologies: (1) GCIMS (Gas Chromatography/Mass Spectrometry) analysis, (2) ABUSCREEN ONLINE Benzodiazepines Immunoassay, and (3) HPLC (High Pressure Liquid Chromatography) analysis.
The standard solutions were stored at various temperatures, including 4° C., 45° C. and 55° C., and tested at different time intervals.

[2] = Heat stress stability of urine standard solutions, ABUSCREEN ONLINE Benzodiazepines assay; conditions: for stability in urine by ONLINE assay: up to 4 weeks, 4° C. or 45° C., pH 6.4 or 7.4, 100 to 200 ng/mL
Description: as §1, §2
The heat stress stability study of the water-soluble derivative 2 was evaluated using ABUSCREEN ONLINE Benzodiazepines assay. […] (in neutral and acidic negative urine pools, 2 concentrations for each urinary pH).

[3] = Description: Water-soluble derivative 2 was spiked in certified drug-free human urine 100 ng/mL) and the resulting solution was divided into two portions: one was stored at 4° C. and the other stressed at 45° C. After three months, both solutions were analyzed for the concentration of water-soluble derivative 2 by the following procedure. A volume (between 2.5 to 10 mL) of the urine solutions was passed through an affinity column packed with anti-benzodiazepines antiserum-coated latex beads (0.8 μm). After it was washed with a 50 mM, pH 6.1 MES (4-morpholineethane […]) buffer, the column was eluted with methanol. The methanol eluant was then evaporated and the residue reconstituted in 404 μL of MES buffer. […] The column was eluted with a gradient generated between a 50 mM, pH 6.8 ammonium acetate buffer and acetonitrile (Table C).
[4] = test system: antibody (competition with benzodiazepine-BSA conjugate 7); test: Immunochromatographic assay of benzodiazepines (nitrocellulose test strip, competitive); assay type: binding
Description: In the absence of lipophilic drug in a sample being analyzed, the drug conjugate can bind to the antibody, and this binding can be measured. When a the lipophilic drug is present in the sample, the drug competes with the drug conjugate for binding to the antibody. Antibody that is bound to the liphophilic drug no longer contributes to the binding measurement. Lipophilic drug content is determined relative to the values obtained for known concentrations of the standard compound (Adler, F. L. J. Immunol. 1971, 106(6):1684–1685. See also Bates, M. Amer. Acad. Forensic Sci. 1991, 37(6):1000).
The benzodiazepine-BSA conjugate was prepared in a similar manner as described in Example 6, but treating with BSA rather than BTG. The product was prepared and stored in 100 mM potassium phosphate as 10 mg/mL solution with 0.05% sodium azide as preservative Example 9-Immunochromatographic assay of benzodiazepines using water-soluble derivative 2 as calibrator The immunochromatographic assay was conducted using a nitrocellulose-based test strip as described in detail in U.S. Pat. No. 5,770,458. Mylar backed large pore size nitrocellulose (8–12 micron) was cut into pieces of 15 cm in length and 5 cm in width. A solution of the benzodiazepine-BSA conjugate 7 (about 5 mg/mL) and anti-BSA monoclonal antibody (about 2 mg/mL), both in 50 mM potassium phosphate buffer pH 7.5, were loaded onto IVEK CORP. (North Springfield, Vt.) […] 2000™ system. The solutions were dispensed at the rate 1 μl/cm onto nitrocellulose at a distance of 2 cm and 1 cm, respectively, from the 15 cm side. The nitrocellulose segments were allowed to dry for about 30 min. at 37° C., and then were blocked with polyvinyl alcohol (PVA, m.w. 13,000–23,000) solution in 20 mM TRIS, pH 8, for 30 min. at room temperature. The segments were then rinsed in water and dried.
The same nitrocellulose as described above in this example was used as a separate membrane for microparticles (top membrane). The construction of the two-membrane strip configuration was carried out as described in detail in U.S. Pat. No. 5,770,458. In brief, the top membrane was blocked and washed using the same protocol as the main membrane. The top membrane containing the appropriate amount of microparticles was laminated to the main membrane with ADHESIVE […] INC. (Glen Rock, Pa.) adhesive mylar and the segment was then cut into 5 mm wide strips. The sample pad and sink pad were placed respectively at the beginning and terminal ends of the strips. Cellulose from BIORAD LABORATORIES (Hercules, Calif.) (gel blotter) was used for both the sample receiving pads and the sink pads. The calibration curve was obtained by adding solutions containing predetermined amounts of drug in urine to the sample receiving pad or by dipping the sample receiving pad of the membrane strip in the solutions. Various predetermined concentrations of water-soluble derivative 2 were used to prepare the standards in urine. The signal strength is determined as follows: 2.5 to 3.0=dark blue, 1.5 to 2.0-medium blue, 1.0=light blue, 0.5=barely perceivable color and 0=colorless. When the strip read colorless, a complete inhibition is achieved and the sample is indicated to contain 200 ng/mL of the drug used to prepare the “standards”.

[5] = in water; 'it is believed'
[6] = test system: antibody of ABUSCREEN ONLINE Benzodiazepines assay; conditions: ONLINE immunoassay
Description: ABUSCREEN ONLINE reagents and Calibration Pack were obtained from ROCHE DIAGNOSTICS CORPORATION, INC. […] ABUSCREEN ONLINE Benzodiazepines assay was run either on a ROCHE MIRA analyzer in a semi-quantitative mode, or using a ROCHE COBAS INTEGRA 700 analyzer in a semi-quantitative mode, according to the I manufacturer's instructions.

[7] = cited from earlier work
[8] = urine pH 6.4, higher-concentration standard
[9] = urine pH 6.4, lower-concentration standard
[10] = urine pH 7.4, higher-concentration standard
[11] = urine pH 7.4, lower-concentration standard
[12] = urine, scale 2.5 to 3.0 dark blue, 1.5 to 2.0 medium blue, 1.0 light blue, 0.5 barely perceivable, 0 colorless

O=C1CN=C(c2ccccc2F)c2cc(Cl)ccc2N1CCNS(=O)(=O)O [Water-soluble derivative 2, 1-(2-Sulfamidoethyl)-2′-fluoro-7-chloro-1,4-benzodiazepine]
GC/MS concentration, Day 0 ([1]; human urine standard solution, starting concentration): Day 0 = 171 ng/mL
GC/MS value at 5 months, 4° C. ([1]; human urine, 5 months, 4° C., Day 0 = 171 ng/mL): 147 ng/mL
GC/MS value at 5 months, 45° C. ([1]; human urine, 5 months, 45° C., Day 0 = 171 ng/mL): 150 ng/mL
GC/MS value at 5 months, 55° C. ([1]; human urine, 5 months, 55° C., Day 0 = 171 ng/mL): 145 ng/mL
GC/MS concentration after storage at 4° C. ([1]; human urine, two weeks, 4° C.): 191 ng/mL
GC/MS concentration after storage at 45° C. ([1]; human urine, two weeks, 45° C.): 178 ng/mL
GC/MS concentration after storage at 55° C. ([1]; human urine, two weeks, 55° C.): 185 ng/mL
change of concentration in urine ([1]; two weeks, 4° C.): stable at all temperatures
change of concentration in urine ([1]; two weeks, 4° C., listed as water-soluble benzodiazepine reference standard 2): does not change significantly
stability in urine by ONLINE assay [2]: stable for the evaluated time and temperatures
stability in urine by ONLINE assay ([2]; listed as water-soluble benzodiazepine reference standard 2): does not change significantly
ONLINE assay concentration, 4° C., Day 0 [2, 8]: 191 ng/mL
ONLINE assay concentration, 4° C., Week 2 [2, 8]: 191 ng/mL
ONLINE assay concentration, 4° C., Week 4 [2, 8]: 193 ng/mL
ONLINE assay concentration, 45° C., Day 0 [2, 8]: 191 ng/mL
ONLINE assay concentration, 45° C., Week 2 [2, 8]: 200 ng/mL
ONLINE assay concentration, 45° C., Week 4 [2, 8]: 209 ng/mL
ONLINE assay concentration, 4° C., Day 0 [2, 9]: 99 ng/mL
ONLINE assay concentration, 4° C., Week 2 [2, 9]: 97 ng/mL
ONLINE assay concentration, 4° C., Week 4 [2, 9]: 106 ng/mL
ONLINE assay concentration, 45° C., Day 0 [2, 9]: 99 ng/mL
ONLINE assay concentration, 45° C., Week 2 [2, 9]: 101 ng/mL
ONLINE assay concentration, 45° C., Week 4 [2, 9]: 109 ng/mL
ONLINE assay concentration, 4° C., Day 0 [2, 10]: 188 ng/mL
ONLINE assay concentration, 4° C., Week 2 [2, 10]: 183 ng/mL
ONLINE assay concentration, 4° C., Week 4 [2, 10]: 189 ng/mL
ONLINE assay concentration, 45° C., Day 0 [2, 10]: 188 ng/mL
ONLINE assay concentration, 45° C., Week 2 [2, 10]: 179 ng/mL
ONLINE assay concentration, 45° C., Week 4 [2, 10]: 192 ng/mL
ONLINE assay concentration, 4° C., Day 0 [2, 11]: 102 ng/mL
ONLINE assay concentration, 4° C., Week 2 [2, 11]: 92 ng/mL
ONLINE assay concentration, 4° C., Week 4 [2, 11]: 99 ng/mL
ONLINE assay concentration, 45° C., Day 0 [2, 11]: 102 ng/mL
ONLINE assay concentration, 45° C., Week 2 [2, 11]: 95 ng/mL
ONLINE assay concentration, 45° C., Week 4 [2, 11]: 98 ng/mL
relative stability of the stressed sample (single extraction and HPLC runs) ([3]; human urine, three months, 45° C. vs 4° C., duplicate runs): 96% and 106%
relative stability of the stressed sample (average) ([3]; human urine, three months, area count at 45° C. divided by that at 4° C., average of duplicates): 101%
stability at 45° C. relative to 4° C. ([3]; urine, storage as long as 3 months): no decrease in stability
cross-reactivity to both Oxazepam and Nordiazepam ([4]; immunochromatographic assay): approximately 70%
signal strength at 50 ng/mL standard [4, 12]: 2.50 and 2.75
signal strength at 100 ng/mL standard [4, 12]: 2.00
signal strength at 200 ng/mL standard [4, 12]: 0
signal strength at 400 ng/mL standard [4, 12]: 0
aqueous solubility [5]: more than 2 mg/mL
cross-reactivity to both Oxazepam and Nordiazepam [6]: approximately 70%

CCN(CC)CCN1C(=O)CN=C(c2ccccc2F)c2cc(Cl)ccc21 [Fluazepam]
solubility in water [7]: only slight solubility in water

O=C1CN=C(c2ccccc2)c2cc(Cl)ccc2N1 [Nordiazepam, reference compound]
ONLINE assay concentration, 4° C., Day 0 [2, 10]: 271 ng/mL
ONLINE assay concentration, 4° C., Week 2 [2, 10]: 272 ng/mL
ONLINE assay concentration, 4° C., Week 4 [2, 10]: 252 ng/mL
ONLINE assay concentration, 45° C., Day 0 [2, 10]: 271 ng/mL
ONLINE assay concentration, 4° C., Day 0 [2, 11]: 139 ng/mL
ONLINE assay concentration, 4° C., Week 2 [2, 11]: 140 ng/mL
ONLINE assay concentration, 4° C., Week 4 [2, 11]: 134 ng/mL
ONLINE assay concentration, 45° C., Day 0 [2, 11]: 139 ng/mL
